The record followed here is ChEMBL document CHEMBL4270540, “Collagen Prolyl 4-Hydroxylase as a Therapeutic Target” (J Med Chem, 2018).

The nature of assay [1]: Inhibition of collagen prolyl 4-hydroxylase (unknown origin). Also on record: species or system Homo sapiens.
Assay [2] can be described thus: Inhibition of chicken collagen prolyl 4-hydroxylase. On the set-up: species or system Gallus gallus.
Assay [3] is described as follows: Inhibition of collagen prolyl 4-hydroxylase (unknown origin) using 2-ketoglutarate as co-factor assessed as formation of [14C]succinate by ion-exchnage chromatographic method. Also on record: species or system Homo sapiens.

Regarding `COc1ccc(S(=O)(=O)NC(=O)c2ccc(C(=O)O)nc2)cc1`, in assay [1], it took 1 µM to reach half-maximal inhibition (IC50).
`O=C(O)c1ncc2ccccc2c1O`: in assay [2], inhibition was half-maximal at 0.19 µM (IC50).
`O=C(O)c1nnc2ccccc2c1O`: 0.02 µM corresponded to half-maximal inhibition in assay [2] (IC50).
With `C[C@H](NC(=O)C(=O)O)C(=O)O`, the IC50 (in general, the concentration needed to halve the response being measured) in assay [3] was 38.2 µM.
On the same count and under the same terms, as for `C[C@@H](NC(=O)C(=O)O)C(=O)O`, the figure is 621 µM.
In the case of `CC(NC(=O)C(=O)O)C(=O)O` (racemic), the IC50 in assay [3] was 90.7 µM.
For `O=C(O)CNC(=O)C(=O)O` [N-OXALYLGLYCINE], in assay [3], the IC50 is 2.89 µM.
In the case of `O=C(O)c1ccc(C(=O)O)nc1` [PYRIDINE-2,5-DICARBOXYLIC ACID], inhibition in assay [1] was half-maximal at 5.5 µM (IC50).
